Source: paper PMC8119466, “A screen of FDA-approved drugs identifies inhibitors of protein tyrosine phosphatase 4A3 (PTP4A3 or PRL-3)” (Scientific Reports, 2021)
Counter-ions that a name gives are not always drawn. Like-named read-outs stand apart in the source and are kept apart here.

Tests used:
Assay type in all cases: biochemical
recombinant PRL-2 = target: T1, recombinant PRL-2 (Homo sapiens, UniProt Q12974); test: In vitro phosphatase assay (DiFMUP hydrolysis), PRL-2;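 note: PRL-2 activity read as DiFMUP hydrolysis after 20 min at room temperature with drug, enzyme first pre-reduced at 4 °C for 20 min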
T1 construct: 6xHis (N, cleaved yes); made in house; host or cells: E. coli One Shot BL21 Star
T1 sequence (Q12974 1-167): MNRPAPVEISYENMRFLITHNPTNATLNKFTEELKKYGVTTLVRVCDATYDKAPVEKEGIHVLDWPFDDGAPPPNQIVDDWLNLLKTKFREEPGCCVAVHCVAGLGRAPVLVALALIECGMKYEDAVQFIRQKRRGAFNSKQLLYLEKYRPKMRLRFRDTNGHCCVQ

recombinant PRL-3 = target: T2, recombinant PRL-3 (Homo sapiens, UniProt O75365); test: In vitro phosphatase assay (DiFMUP hydrolysis), PRL-3; note: test concentration or dose not given here
T2 construct: 6xHis (N, cleaved yes); made in house; host or cells: E. coli One Shot BL21 Star
T2 sequence (O75365 whole entry): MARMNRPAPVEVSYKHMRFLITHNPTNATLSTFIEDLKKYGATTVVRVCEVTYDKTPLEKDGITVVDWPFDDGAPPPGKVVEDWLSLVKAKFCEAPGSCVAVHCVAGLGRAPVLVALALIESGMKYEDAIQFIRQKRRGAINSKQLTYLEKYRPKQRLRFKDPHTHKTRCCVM

recombinant PRL-1 = target: T3, recombinant PRL-1 (Homo sapiens, UniProt Q93096); test: In vitro phosphatase assay (DiFMUP hydrolysis), PRL-1; note: test concentration or dose not given here
T3 construct: 6xHis (N, cleaved yes); made in house; host or cells: E. coli One Shot BL21 Star
T3 sequence (Q93096 1-173): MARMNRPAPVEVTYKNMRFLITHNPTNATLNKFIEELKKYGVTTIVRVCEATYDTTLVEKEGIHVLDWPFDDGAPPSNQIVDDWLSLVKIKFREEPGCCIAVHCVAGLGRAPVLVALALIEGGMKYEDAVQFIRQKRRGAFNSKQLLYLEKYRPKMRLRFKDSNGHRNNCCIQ

[1] = FDA-approved drug screen, compared to DMSO

Row | Compound | % Phosphatase Activity (compared to DMSO) PRL-2 (recombinant PRL-2; [1]) [%] | % Phosphatase Activity (compared to DMSO) PRL-3 (recombinant PRL-3; [1]) [%] | % Phosphatase Activity (compared to DMSO) PRL-1 (recombinant PRL-1; [1]) [%] | % Phosphatase Activity (compared to DMSO) PRL-2 (recombinant PRL-2) [%] | % Phosphatase Activity (compared to DMSO) PRL-3 (recombinant PRL-3) [%] | % Phosphatase Activity (compared to DMSO) PRL-1 (recombinant PRL-1) [%]
1 | CC[C@H](C)[C@H]1O[C@]2(CC[C@@H]1C)C[C@@H]1C[C@@H](C/C=C(\C)[C@@H](O[C@H]3C[C@H](OC)[C@@H](O[C@H]4C[C@H](OC)[C@@H](O)[C@H](C)O4)[C@H](C)O3)[C@@H](C)/C=C/C=C3\CO[C@@H]4[C@H](O)C(C)=C[C@@H](C(=O)O1)[C@]34O)O2 [Ivermectin] | 102 | 69 | 91 | – | – | –
2 | CC(=O)N1CCN(c2ccc(OCC3COC(Cn4ccnc4)(c4ccc(Cl)cc4Cl)O3)cc2)CC1 (stereo not drawn) [Ketoconazole] | 89 | 75 | 92 | – | – | –
3 | CC(C(=O)O)c1cccc(C(=O)c2ccccc2)c1 (stereo not drawn) [Ketoprofen] | 95 | 87 | 105 | – | – | –
4 | Cl.N=C(N)NCCC[C@H](N)C(=O)O [L-Arginine HCl (L-Arg)] | 91 | 104 | 82 | – | – | –
5 | NC(=O)CC[C@H](N)C(=O)O [L-Glutamine] | 77 | 87 | 94 | – | – | –
6 | N[C@@H](Cc1cc(I)c(Oc2cc(I)c(O)c(I)c2)c(I)c1)C(=O)O [L-Thyroxine] | 92 | 81 | 79 | – | – | –
7 | C[N+](C)(C)C[C@H](O)CC(=O)[O-] [L-carnitine] | 103 | 83 | 102 | – | – | –
8 | Cc1c(C(=O)Nc2ccc(N3C[C@@H](C)O[C@@H](C)C3)nc2)cccc1-c1ccc(OC(F)(F)F)cc1 [LDE225 (NVP-LDE225,Erismodegib)] | 111 | 83 | 97 | – | – | –
9 | CN(C)C(=O)c1cc2cnc(Nc3ccc(N4CCNCC4)cn3)nc2n1C1CCCC1 [LEE011] | 84 | 98 | 103 | – | – | –
10 | CC(C)(C)Cn1c(N)nc2ccc(-c3[nH]c(C(C)(C)C)nc3-c3ccc(F)cc3)nc21 [LY2228820] | 137 | 131 | 159 | – | – | –
11 | CC(CCc1ccccc1)NCC(O)c1ccc(O)c(C(N)=O)c1 (stereo not drawn) [Labetalol HCl] | 154 | 110 | 156 | – | – | –
12 | CCOC(=O)C1=C(C)NC(C)=C(C(=O)OCC)C1c1ccccc1/C=C/C(=O)OC(C)(C)C [Lacidipine] | 329 | 172 | 232 | – | – | –
13 | Nc1ccn([C@@H]2CS[C@H](CO)O2)c(=O)n1 [Lamivudine] | 113 | 92 | 104 | – | – | –
14 | Cc1c(OCC(F)(F)F)ccnc1C[S+]([O-])c1nc2ccccc2[nH]1 (stereo not drawn) [Lansoprazole] | 92 | 59 | 94 | – | – | –
15 | CS(=O)(=O)CCNCc1ccc(-c2ccc3ncnc(Nc4ccc(OCc5cccc(F)c5)c(Cl)c4)c3c2)o1.Cc1ccc(S(=O)(=O)O)cc1.Cc1ccc(S(=O)(=O)O)cc1 [Lapatinib (GW-572016) Ditosylate] | – | – | – | 255 | 142 | 212
16 | CS(=O)(=O)CCNCc1ccc(-c2ccc3ncnc(Nc4ccc(OCc5cccc(F)c5)c(Cl)c4)c3c2)o1 [Lapatinib] | – | – | – | 207 | 121 | 207
17 | COC(=O)N[C@H](C(=O)N1CC2(CC2)C[C@H]1c1nc(-c2ccc3c(c2)C(F)(F)c2cc(-c4ccc5[nH]c([C@@H]6[C@H]7CC[C@H](C7)N6C(=O)[C@@H](NC(=O)OC)C(C)C)nc5c4)ccc2-3)c[nH]1)C(C)C [Ledipasvir (GS5885)] | 115 | 144 | 174 | – | – | –
18 | Cc1oncc1C(=O)Nc1ccc(C(F)(F)F)cc1 [Leflunomide] | 80 | 67 | 88 | – | – | –
19 | COc1cc2nccc(Oc3ccc(NC(=O)NC4CC4)c(Cl)c3)c2cc1C(N)=O [Lenvatinib (E7080)] | 85 | 87 | 96 | – | – | –
20 | N#Cc1ccc(C(c2ccc(C#N)cc2)n2cncn2)cc1 [Letrozole] | 85 | 74 | 94 | – | – | –
21 | CC(C)NC[C@H](O)COc1ccc(CCOCC2CC2)cc1.Cl [Levobetaxolol HCl] | – | – | – | 99 | 69 | 100

Continued, in another order:

Row | % Phosphatase Activity (compared to DMSO) PRL-2 (recombinant PRL-2; [1]) [%] | % Phosphatase Activity (compared to DMSO) PRL-3 (recombinant PRL-3; [1]) [%] | % Phosphatase Activity (compared to DMSO) PRL-1 (recombinant PRL-1; [1]) [%] | Compound | % Phosphatase Activity (compared to DMSO) PRL-2 (recombinant PRL-2) [%] | % Phosphatase Activity (compared to DMSO) PRL-3 (recombinant PRL-3) [%] | % Phosphatase Activity (compared to DMSO) PRL-1 (recombinant PRL-1) [%]
22 | 69 | 97 | 87 | O=C(/C=C\n1cnc(-c2cc(C(F)(F)F)cc(C(F)(F)F)c2)n1)NNc1cnccn1 [KPT-330] | – | – | –
23 | 97 | 78 | 98 | O=C(c1ccccc1)c1ccc2n1CCC2C(=O)O (stereo not drawn) [Ketorolac] | – | – | –
24 | 97 | 89 | 93 | CN1CCC(=C2c3ccccc3CC(=O)c3sccc32)CC1 [Ketotifen Fumarate] | – | – | –
25 | 92 | 114 | 99 | Cc1cc(Nc2ncc(Cl)c(Nc3ccccc3S(=O)(=O)C(C)C)n2)c(OC(C)C)cc1C1CCNCC1 [LDK378] | – | – | –
26 | 130 | 115 | 111 | Cc1cccc(-c2nn3c(c2-c2ccnc4ccc(C(N)=O)cc24)CCC3)n1 [LY2157299] | – | – | –
27 | 167 | 95 | 146 | Cc1cc(Nc2cc(CN3CCOCC3)c3nc(C)c(Cc4ccc(Cl)cc4F)n3n2)n[nH]1 [LY2784544] | – | – | –
28 | 79 | 99 | 92 | CCN1CCN(Cc2ccc(Nc3ncc(F)c(-c4cc(F)c5nc(C)n(C(C)C)c5c4)n3)nc2)CC1 [LY2835219] | – | – | –
29 | 115 | 83 | 114 | O=C(C[S+]([O-])Cc1ccco1)NC/C=C\COc1cc(CN2CCCCC2)ccn1 (stereo not drawn) [Lafutidine] | – | – | –
30 | 110 | 83 | 121 | Nc1nnc(-c2cccc(Cl)c2Cl)c(N)n1 [Lamotrigine] | – | – | –
31 | 95 | 84 | 87 | Nc1cccc2c1CN(C1CCC(=O)NC1=O)C2=O (stereo not drawn) [Lenalidomide (CC-5013)] | – | – | –
32 | 101 | 84 | 87 | COC(=O)C1=C(C)NC(C)=C(C(=O)OC(C)(C)CN(C)CCC(c2ccccc2)c2ccccc2)C1c1cccc([N+](=O)[O-])c1.Cl (stereo not drawn) [Lercanidipine (hydrochloride)] | – | – | –
33 | 102 | 85 | 90 | O=C(O)CSc1nnc(Br)n1-c1ccc(C2CC2)c2ccccc12 [Lesinurad] | – | – | –
